Measured values reported in patent US20050260630A1, “Rapid methods for detecting methylation of a nucleic acid molecule” (Michigan State University, priority 2004, published 2005).

Columns and labels:
[1] = test system: H4IIE rat hepatoma cells; experiment: Global DNA methylation by SssI methylase assay in treated H4IIE cells; settings: 72 hour incubation
[2] = Systolic blood pressure of DOCA-treated uninephrectomized rats; type: in vivo, rat; settings: male Sprague-Dawley rats, uninephrectomy, pellet 200 mg/kg, water with 1.0% NaCl and 0.2% KCl; at 28 days (control 112 mmHg)
Experimental: Hypertensive rats were created by subjecting male Sprague-Dawley rats, weighing […] uninephrectomy and implanting them with a deoxycorticosterone acetate (DOCA) pellet (200 mg/kg). […] Aortas were removed 28 days after implantation of the DOCA pellet.

[3] = test system: GC-rich regions of liver genomic DNA; experiment: GC-rich region methylation following phenobarbital treatment of B6C3F1 mice (AP-PCR and capillary electrophoresis, RsaI/HpaII and RsaI/MspI digests); type: in vivo; settings: B6C3F1 mouse liver
[4] = test system: genomic DNA from liver cells (GC-rich regions, 5′CCGG 3′ sites); experiment: Arbitrarily primed PCR and capillary electrophoresis methylation analysis of liver DNA of phenobarbital-treated C57BL/6 mice (RsaI/HpaII digest); settings: 0.05% (w/v) in drinking water for 2 weeks
[5] = H4IIE cells treated with cytolethal concentrations
[6] = H4IIE cells treated with non-cytolethal concentrations
[7] = HpaII digest, 0.05% (w/v) in drinking water, 2 weeks
[8] = MspI digest, 0.05% (w/v) in drinking water, 2 weeks
[9] = Total of HpaII and MspI digests, 0.05%

For O=c1[nH]cc(F)c(=O)[nH]1 [5-FU, 5-fluorouracil], which “global DNA methylation status” value [1, 5] is on record?
The value was “decrease in global DNA methylation status”.

With CC(=O)OCC(=O)[C@H]1CC[C@H]2[C@@H]3CCC4=CC(=O)CC[C@]4(C)[C@H]3CC[C@]12C [DOCA, deoxycorticosterone acetate] as the compound, how does the systolic blood pressure [2] read?
The systolic blood pressure was 180 mmHg.

For Nc1ncn([C@H]2C[C@H](O)[C@@H](CO)O2)c(=O)n1 [dAzaC, 5-aza-2′deoxycytidine], which “global DNA methylation status” value [1, 6] is on record?
The value was “decrease in global DNA methylation status”.

Which “Sites of Hypermethylation” value [3, 7] does the source give for CCC1(c2ccccc2)C(=O)NC(=O)NC1=O [phenobarbital] here?
The value was 10 sites.

And the “Sites of Hypomethylation” value [3, 7]?
The value was 5 sites.

What about the “Sites of “New” Methylation” value [3, 7] of the same compound?
Its value is 11 sites.

And the TOTAL altered sites [3, 7]?
Its TOTAL altered sites is 26 sites.

And the “Sites of Hypermethylation” value [3, 8]?
The value was 8 sites.

What about the “Sites of Hypomethylation” value [3, 8] of the same compound?
Its value is 8 sites.

And the “Sites of “New” Methylation” value [3, 8]?
Its value is 11 sites.

What about the TOTAL altered sites [3, 8] of the same compound?
Its TOTAL altered sites is 27 sites.

What about the “Sites of Hypermethylation” value [3, 9] of the same compound?
Its value is 18 sites.

And the “Sites of Hypomethylation” value [3, 9]?
Its value is 13 sites.

What about the “Sites of “New” Methylation” value [3, 9] of the same compound?
Its value is 22 sites.

What about the TOTAL altered sites [3, 9] of the same compound?
The TOTAL altered sites was 53 sites.

And the “sites in murine liver DNA where treatment has affected methylation status” value ([4]; C57BL/6 mice)?
Its value is 10 sites.

And the Sites of Hypermethylation ([4]; liver DNA of male C57BL/6 mice, t-test α=0.05)?
Its Sites of Hypermethylation is 8 sites.

What does the source list for CN[C@@H]1C[C@H]2O[C@@](C)([C@@H]1OC)n1c3ccccc3c3c4c(c5c6ccccc6n2c5c31)C(=O)NC4 [staurosporine, Staurosporine]?
global DNA methylation status [1, 5]: decrease in global DNA methylation status; global DNA methylation status [1, 6]: decrease in global DNA methylation status
